Results: ChEMBL document CHEMBL2429826, “Design, synthesis, and evaluation of prodrugs of ertapenem” (ACS Med Chem Lett, 2013)

How the values were obtained:
[1] = AUC (0 to 8 hrs) in Sprague-Dawley rat at 1 mg/kg, iv; format: ADME, organism-based; set-up: time < 8 hr, dose 1 mg/kg, route intravenous; conditions: plasma
[2] = Oral bioavailability in Sprague-Dawley rat at 10 mg/kg; format: ADME, organism-based; conditions: in vivo
[3] = AUC (0 to 8 hrs) in Sprague-Dawley rat at 10 mg/kg, po; format: ADME, organism-based; set-up: time < 8 hr, dose 10 mg/kg, route oral; conditions: plasma
[4] = AUC (0 to 8 hrs) in Beagle dog at 1 mg/kg, iv; format: ADME, organism-based, Canis lupus familiaris; set-up: time < 8 hr, dose 1 mg/kg, route intravenous; conditions: plasma
[5] = Apparent permeability of the compound in pig LLC-PK1 cells
[6] = AUC (0 to 8 hrs) in Sprague-Dawley rat at 10 mg/kg, ID administered as infusion; format: ADME, organism-based; set-up: time < 8 hr, dose 10 mg/kg, route intraduodenal; conditions: plasma
[7] = Metabolic stability in human plasma assessed as compound remaining at 50 uM after 60 mins by LC-MS/MS analysis; format: ADME, cell-free; conditions: read-out: Stability
Canis familiaris [8] = experiment: AUC (0 to 8 hrs) in Beagle dog assessed as 3-((2S,4S)-4-((4R,5S,6S)-2-(ethoxycarbonyl)-6-((R)-1-hydroxyethyl)-4-methyl-7-oxo-1-azabicyclo[3.2.0]hept-2-en-3-ylthio)pyrrolidine-2-carboxamido)benzoic acid at 10 mg/kg, ID administered as infusion; format: ADME, organism-based, Canis lupus familiaris, Plasma; set-up: time < 8 hr, dose 10 mg/kg, route intraduodenal; conditions: in vivo, other
Rattus norvegicus [9] = experiment: Bioavailability in Sprague-Dawley rat assessed as ertapenem at 10 mg/kg, ID administered as infusion; format: ADME, organism-based; conditions: in vivo, other
[10] = Metabolic stability in rat plasma assessed as compound remaining at 50 uM after 60 mins by LC-MS/MS analysis; format: ADME, cell-free; conditions: read-out: Stability
Canis familiaris [11] = experiment: AUC (0 to 8 hrs) in Beagle dog assessed as ertapenem at 10 mg/kg, ID administered as infusion; format: ADME, organism-based, Canis lupus familiaris, Plasma; set-up: time < 8 hr, dose 10 mg/kg, route intraduodenal; conditions: in vivo, other
Rattus norvegicus [12] = experiment: AUC (0 to 8 hrs) in Sprague-Dawley rat assessed as ertapenem at 10 mg/kg, ID administered as infusion; format: ADME, organism-based, Plasma; set-up: time < 8 hr, dose 10 mg/kg, route intraduodenal; conditions: in vivo, other
Rattus norvegicus [13] = experiment: AUC (0 to 8 hrs) in Sprague-Dawley rat assessed as (4R,5S,6S)-3-((3S,5S)-5-(3-(ethoxycarbonyl)phenylcarbamoyl)pyrrolidin-3-ylthio)-6-((R)-1-hydroxyethyl)-4-methyl-7-oxo-1-azabicyclo[3.2.0]hept-2-ene-2-carboxylic acid at 10 mg/kg, ID administered as infusion; format: ADME, organism-based, Plasma; set-up: time < 8 hr, dose 10 mg/kg, route intraduodenal; conditions: in vivo, other, BLD = below limit of detection
[14] = Metabolic stability in dog plasma assessed as compound remaining at 50 uM after 60 mins by LC-MS/MS analysis; format: ADME, cell-free, Canis lupus familiaris; conditions: read-out: Stability
Rattus norvegicus [15] = experiment: AUC (0 to 8 hrs) in Sprague-Dawley rat assessed as 3-((2S,4S)-4-((4R,5S,6S)-2-(ethoxycarbonyl)-6-((R)-1-hydroxyethyl)-4-methyl-7-oxo-1-azabicyclo[3.2.0]hept-2-en-3-ylthio)pyrrolidine-2-carboxamido)benzoic acid at 10 mg/kg, ID administered as infusion; format: ADME, organism-based, Plasma; set-up: time < 8 hr, dose 10 mg/kg, route intraduodenal; conditions: in vivo, other, BLD = below limit of detection
Canis familiaris [16] = experiment: Bioavailability in Beagle dog assessed as ertapenem at 10 mg/kg, ID administered as infusion; format: ADME, organism-based, Canis lupus familiaris; conditions: in vivo, other
Canis familiaris [17] = experiment: AUC (0 to 8 hrs) in Beagle dog assessed as (4R,5S,6S)-3-((3S,5S)-5-(3-(ethoxycarbonyl)phenylcarbamoyl)pyrrolidin-3-ylthio)-6-((R)-1-hydroxyethyl)-4-methyl-7-oxo-1-azabicyclo[3.2.0]hept-2-ene-2-carboxylic acid at 10 mg/kg, ID administered as infusion; format: ADME, organism-based, Canis lupus familiaris, Plasma; set-up: time < 8 hr, dose 10 mg/kg, route intraduodenal; conditions: in vivo, other
[18] = Metabolic stability in monkey plasma assessed as compound remaining at 50 uM after 60 mins by LC-MS/MS analysis; format: ADME, cell-free, Macaca mulatta; conditions: rhesus monkey, read-out: Stability
Rattus norvegicus [19] = experiment: AUC (0 to 8 hrs) in Sprague-Dawley rat assessed as 3-((2S,4S)-4-((4R,5S,6S)-2-(ethoxycarbonyl)-6-((R)-1-hydroxyethyl)-4-methyl-7-oxo-1-azabicyclo[3.2.0]hept-2-en-3-ylthio)pyrrolidine-2-carboxamido)benzoic acid at 4.4 mg/kg, ID administered as infusion; format: ADME, organism-based, Plasma; set-up: time < 8 hr, dose 4.4 mg/kg, route intraduodenal; conditions: in vivo, other
Rattus norvegicus [20] = experiment: Bioavailability in Sprague-Dawley rat assessed as ertapenem at 4.4 mg/kg, ID administered as infusion; format: ADME, organism-based; conditions: in vivo, other
Rattus norvegicus [21] = experiment: AUC (0 to 8 hrs) in Sprague-Dawley rat assessed as ertapenem at 4.4 mg/kg, ID administered as infusion; format: ADME, organism-based, Plasma; set-up: time < 8 hr, dose 4.4 mg/kg, route intraduodenal; conditions: in vivo, other
Rattus norvegicus [22] = experiment: AUC (0 to 8 hrs) in Sprague-Dawley rat assessed as (4R,5S,6S)-3-((3S,5S)-5-(3-(ethoxycarbonyl)phenylcarbamoyl)pyrrolidin-3-ylthio)-6-((R)-1-hydroxyethyl)-4-methyl-7-oxo-1-azabicyclo[3.2.0]hept-2-ene-2-carboxylic acid at 4.4 mg/kg, ID administered as infusion; format: ADME, organism-based, Plasma; set-up: time < 8 hr, dose 4.4 mg/kg, route intraduodenal; conditions: in vivo, other
Liver microsomes [23] = experiment: Drug metabolism in rat liver microsomes assessed as tebipenem level after 15 mins; format: ADME, Microsome; conditions: 0.25 h
Liver microsomes [24] = experiment: Drug metabolism in human liver microsomes assessed as tebipenem level after 15 mins; format: ADME, Microsome; conditions: 0.25 h
Hepatocyte [25] = experiment: Drug metabolism in rat hepatocytes assessed as tebipenem level after 15 mins; format: ADME, cell-based; conditions: 0.25 h
[26] = Drug metabolism in dog hepatocytes assessed as tebipenem level after 15 mins; format: ADME, cell-based, Canis lupus familiaris, Hepatocyte; conditions: 0.25 h
[27] = Drug metabolism in dog liver microsomes assessed as tebipenem level after 15 mins; format: ADME, Canis lupus familiaris, Microsome; conditions: 0.25 h
[28] = Drug metabolism in monkey hepatocytes assessed as tebipenem level after 15 mins; format: ADME, cell-based, Macaca mulatta, Hepatocyte; conditions: rhesus monkey, 0.25 h
[29] = Drug metabolism in monkey liver microsomes assessed as tebipenem level after 15 mins; format: ADME, Macaca mulatta, Microsome; conditions: rhesus monkey, 0.25 h
Hepatocyte [30] = experiment: Drug metabolism in human hepatocytes assessed as tebipenem level after 15 mins; format: ADME, cell-based; conditions: 0.25 h

| Papp [5] | remaining at 1 h, 50 µM [7] | remaining at 1 h, 50 µM [10] | AUC (Canis familiaris [11]) | remaining at 1 h, 50 µM [14] | F (Canis familiaris [16]) | remaining at 1 h, 50 µM [18] | Structure (SMILES) | also measured |
| --- | --- | --- | --- | --- | --- | --- | --- | --- |
| 5 nm/s | – | – | – | – | – | – | C[C@@H](O)[C@H]1C(=O)N2C(C(=O)O)=C(S[C@@H]3CN[C@H](C(=O)Nc4cccc(C(=O)O)c4)C3)[C@H](C)[C@H]12 | AUC(0-t) at 8 h [1]: 7840 nM·h; bioavailability [2]: 0.53%; AUC(0-t) at 8 h [3]: 390 nM·h; AUC(0-t) at 8 h [4]: 8900 nM·h; AUC(0-t) at 8 h [6]: 480 nM·h |
| – | 36% | 2% | 1810 nM·h | 37% | 3% | – | C[C@@H](O)[C@H]1C(=O)N2C(C(=O)OCOC(=O)C(C)(C)C)=C(S[C@@H]3CN[C@H](C(=O)Nc4cccc(C(=O)OCOC(=O)C(C)(C)C)c4)C3)[C@H](C)[C@H]12 | AUC (Canis familiaris [8]): 40 nM·h; F (Rattus norvegicus [9]): 0.37%; AUC (Rattus norvegicus [12]): 200 nM·h; AUC (Rattus norvegicus [13]): BLD; AUC (Rattus norvegicus [15]): BLD; AUC (Canis familiaris [17]; BLD = below limit of detection): BLD |
| – | 1% | 1% | – | 3% | – | 2% | Cc1oc(=O)oc1COC(=O)C1=C(S[C@@H]2CN[C@H](C(=O)Nc3cccc(C(=O)OCc4oc(=O)oc4C)c3)C2)[C@H](C)[C@@H]2[C@@H]([C@@H](C)O)C(=O)N12 | F (Rattus norvegicus [9]): 0.77%; AUC (Rattus norvegicus [12]): 300 nM·h |
| 130 nm/s | 5% | 0% | 14300 nM·h | 75% | 18.1% | 77% | CCOC(=O)C1=C(S[C@@H]2CN[C@H](C(=O)Nc3cccc(C(=O)OCC)c3)C2)[C@H](C)[C@@H]2[C@@H]([C@@H](C)O)C(=O)N12 | AUC (Rattus norvegicus [19]): 70 nM·h; F (Rattus norvegicus [20]): 4.98%; AUC (Canis familiaris [8]): 2170 nM·h; AUC (Rattus norvegicus [21]): 1540 nM·h; AUC (Canis familiaris [17]): 3340 nM·h; AUC (Rattus norvegicus [22]): 420 nM·h |
| – | 17% | 0% | 440 nM·h | 79% | 0.53% | 49% | C[C@@H](O)[C@H]1C(=O)N2C3=C(S[C@@H]4CN[C@@H](C4)C(=O)Nc4cccc(c4)C(=O)OCCCOC3=O)[C@H](C)[C@H]12 | – |
| – | 0% | 0% | – | 25% | – | 0% | C[C@@H](O)[C@H]1C(=O)N2C(C(=O)OCOC(=O)C(C)(C)C)=C(SC3CN(C4=NCCS4)C3)[C@H](C)[C@H]12 [TEBIPENEM PIVOXIL] | Drug metabolism (Liver microsomes [23]): Active; Drug metabolism (Liver microsomes [24]): Active; Drug metabolism (Hepatocyte [25]): Active; Drug metabolism [26]: Active; Drug metabolism [27]: Active; Drug metabolism [28]: Active; Drug metabolism [29]: Active; Drug metabolism (Hepatocyte [30]): Active |
| 7 nm/s | – | – | – | – | – | – | C[C@@H](O)[C@H]1C(=O)N2C(C(=O)O)=C(SC3CN(C4=NCCS4)C3)[C@H](C)[C@H]12 [TEBIPENEM] | – |
